{
  "source": "patent US7563801B2",
  "about": "“Pharmaceutical formulations: salts of 8-[{1-(3,5-Bis-(trifluoromethyl)phenyl)-ethoxy}-methyl]-8-phenyl-1,7-diaza-spiro[4.5]decan-2-one and treatment methods using the same” (Schering Corporation, priority 2006, dated 2009)",
  "key": {"[1]": {"test": "Single dose rising study of the encapsulated formulation in healthy human volunteers, pharmacokinetics", "assay_type": "in vivo", "conditions": "for AUC / Cmax / Tmax / half-life: plasma, oral capsule; for AUC: 0 to 72 hours post administration, read-out: AUC (area under the plasma concentration time curve); for Cmax: read-out: Cmax (mean maximum plasma concentration); for Tmax: read-out: Tmax (median time of maximum plasma concentration); for half-life: read-out: Half Life T ½ (converted)", "experimental": "Another aspect of the present invention is the provision of a pharmaceutical formulation comprising a hydrochloride monohydrate salt of Formula II in a capsule oral dosage form which has a Pharmacokinetic (PK) profile obtained under single dose rising rate study conditions in accordance with Table VIII (average of eight study subjects).\nBlood samples were collected from each volunteer at predose (hour 0) and 0.25, 0.5, 0.75, 1, 1.5, 2, 3, 4, 6, 8, 12, 16, 24, 36, 48, and 72 hours. The serum drug levels of the volunteers receiving active drug are present graphically in FIG. 2."}, "[2]": {"test": "Second study: 10, 25 or 50 mg per day for 10 days in healthy volunteers, pharmacokinetics on days 1 and 10", "assay_type": "in vivo, human", "conditions": "for Cmax / AUC / Tmax / half-life: plasma, oral; for Cmax: read-out: Cmax (mean maximum plasma concentration); for AUC: footnote: 0 to 72 hours post administration, read-out: AUC (area under the plasma concentration time curve); for Tmax: read-out: Tmax (median time of maximum plasma concentration); for half-life: read-out: Half Life T ½ (converted)", "experimental": "In a second study, three cohorts of 8 healthy volunteers each were administered 10, 25, or 50 mg per day for each of 10 days. Administration in every case followed a 10 hour fast. Blood samples were collected from each volunteer at predose (hour 0) and 0.25, 0.5, 0.75, 1, 1.5, 2, 3, 4, 6, 8, 12, 16, 24, 36, 48, and 72 hours on each of days 1 and 10."}, "[3]": {"conditions": "human, 10 mg per day, human, 10 mg per day, Day 1"}, "[4]": {"conditions": "human, 10 mg per day, human, 10 mg per day, Day 10"}, "[5]": {"conditions": "human, 25 mg per day, human, 25 mg per day, Day 1"}, "[6]": {"conditions": "human, 25 mg per day, human, 25 mg per day, Day 10"}, "[7]": {"conditions": "human, 50 mg per day, human, 50 mg per day, Day 1"}, "[8]": {"conditions": "human, 50 mg per day, human, 50 mg per day, Day 10"}},
  "data": [
    {"compound": "C[C@@H](OC[C@@]1(c2ccccc2)CC[C@]2(CCC(=O)N2)CN1)c1cc(C(F)(F)F)cc(C(F)(F)F)c1", "note": "[(5S,8S)-8-[{(1R)-1-(3,5-Bis-(trifluoromethyl)phenyl]-ethoxy}-methyl]-8-phenyl-1,7-diazaspiro[4,5]decan-2-one]", "values": [
      {"measurement": "AUC", "setting": "[1]; single dose 5 mg", "result": 931, "unit": "ng·h/mL"},
      {"measurement": "Cmax", "setting": "[1]; single dose 5 mg", "result": 27.3, "unit": "ng/mL"},
      {"measurement": "Tmax", "setting": "[1]; single dose 5 mg", "result": 2, "unit": "h"},
      {"measurement": "AUC", "setting": "[1]; single dose 10 mg", "result": 1820, "unit": "ng·h/mL"},
      {"measurement": "Cmax", "setting": "[1]; single dose 10 mg", "result": 52.7, "unit": "ng/mL"},
      {"measurement": "Tmax", "setting": "[1]; single dose 10 mg", "result": 2.5, "unit": "h"},
      {"measurement": "AUC", "setting": "[1]; single dose 25 mg", "result": 17200, "unit": "ng·h/mL"},
      {"measurement": "Cmax", "setting": "[1]; single dose 25 mg", "result": 119, "unit": "ng/mL"},
      {"measurement": "half-life", "setting": "[1]; single dose 25 mg", "result": 183, "unit": "h"},
      {"measurement": "Tmax", "setting": "[1]; single dose 25 mg", "result": 2.5, "unit": "h"},
      {"measurement": "AUC", "setting": "[1]; single dose 50 mg", "result": 33600, "unit": "ng·h/mL"},
      {"measurement": "Cmax", "setting": "[1]; single dose 50 mg", "result": 276, "unit": "ng/mL"},
      {"measurement": "half-life", "setting": "[1]; single dose 50 mg", "result": 171, "unit": "h"},
      {"measurement": "Tmax", "setting": "[1]; single dose 50 mg", "result": 3, "unit": "h"},
      {"measurement": "AUC", "setting": "[1]; single dose 100 mg", "result": 74400, "unit": "ng·h/mL"},
      {"measurement": "Cmax", "setting": "[1]; single dose 100 mg", "result": 475, "unit": "ng/mL"},
      {"measurement": "half-life", "setting": "[1]; single dose 100 mg", "result": 181, "unit": "h"},
      {"measurement": "Tmax", "setting": "[1]; single dose 100 mg", "result": 2, "unit": "h"},
      {"measurement": "AUC", "setting": "[1]; single dose 200 mg", "result": 148000, "unit": "ng·h/mL"},
      {"measurement": "Cmax", "setting": "[1]; single dose 200 mg", "result": 944, "unit": "ng/mL"},
      {"measurement": "half-life", "setting": "[1]; single dose 200 mg", "result": 169, "unit": "h"},
      {"measurement": "Tmax", "setting": "[1]; single dose 200 mg", "result": 4, "unit": "h"},
      {"measurement": "Absorption", "setting": "[1]; single oral doses 5 to 200 mg", "result": "rapidly absorbed"},
      {"measurement": "Absorption", "setting": "[2]; human, 10, 25 or 50 mg per day for 10 days", "result": "rapidly absorbed"},
      {"measurement": "Accumulation relative to the single dose", "setting": "[2]; human, daily dosing for 10 days", "result": "approximately 5 fold"},
      {"measurement": "Cmax", "setting": "[2]; human, 10 mg per day, human, 10 mg per day, Day 1, after 10 hour fast", "result": 48.6, "unit": "ng/mL"},
      {"measurement": "AUC", "setting": "[2]; [3]", "result": 673, "unit": "ng·h/mL"},
      {"measurement": "Tmax", "setting": "[2]; [3]", "result": 3, "unit": "h"},
      {"measurement": "Cmax", "setting": "[2]; human, 10 mg per day, human, 10 mg per day, Day 10, after 10 hour fast", "result": 180, "unit": "ng/mL"},
      {"measurement": "AUC", "setting": "[2]; [4]", "result": 3590, "unit": "ng·h/mL"},
      {"measurement": "Tmax", "setting": "[2]; [4]", "result": 3, "unit": "h"},
      {"measurement": "Cmax", "setting": "[2]; human, 25 mg per day, human, 25 mg per day, Day 1, after 10 hour fast", "result": 139, "unit": "ng/mL"},
      {"measurement": "AUC", "setting": "[2]; [5]", "result": 1950, "unit": "ng·h/mL"},
      {"measurement": "Tmax", "setting": "[2]; [5]", "result": 2, "unit": "h"},
      {"measurement": "Cmax", "setting": "[2]; human, 25 mg per day, human, 25 mg per day, Day 10, after 10 hour fast", "result": 491, "unit": "ng/mL"},
      {"measurement": "AUC", "setting": "[2]; [6]", "result": 9720, "unit": "ng·h/mL"},
      {"measurement": "Tmax", "setting": "[2]; [6]", "result": 2, "unit": "h"},
      {"measurement": "Cmax", "setting": "[2]; human, 50 mg per day, human, 50 mg per day, Day 1, after 10 hour fast", "result": 254, "unit": "ng/mL"},
      {"measurement": "AUC", "setting": "[2]; [7]", "result": 3400, "unit": "ng·h/mL"},
      {"measurement": "Tmax", "setting": "[2]; [7]", "result": 3, "unit": "h"},
      {"measurement": "Cmax", "setting": "[2]; human, 50 mg per day, human, 50 mg per day, Day 10, after 10 hour fast", "result": 895, "unit": "ng/mL"},
      {"measurement": "AUC", "setting": "[2]; [8]", "result": 17700, "unit": "ng·h/mL"},
      {"measurement": "Tmax", "setting": "[2]; [8]", "result": 2.5, "unit": "h"},
      {"measurement": "half-life", "setting": "[2]; human, 10 mg per day, Day 10", "result": 238, "unit": "h"},
      {"measurement": "half-life", "setting": "[2]; human, 50 mg per day, Day 10", "result": 172, "unit": "h"}
    ]}
  ]
}
